Assay results: ChEMBL document CHEMBL2417501, “Synthesis of 4-aminoquinoline-pyrimidine hybrids as potent antimalarials and their mode of action studies” (Eur J Med Chem, 2013)
pEC50, pIC50: −log10 of the molar value.

Assays:
Cytomegalovirus [1] = assay: Antiviral activity against Cytomegalovirus Davis infected in human HEL cells assessed as reduction of plaque formation; type: functional, organism-based; details: Human betaherpesvirus 5, Davis
[2] = Cytotoxicity against human HEL cells; type: cell-based
Feline coronavirus = assay: Antiviral activity against Feline coronavirus infected in cat CRFK cells assessed as reduction of virus-induced cytopathogenicity by MTS assay; type: functional, organism-based; details: Alphacoronavirus 1, CRFK
Human alphaherpesvirus 1 [3] = assay: Antiviral activity against TK-negative Herpes simplex virus 1 KOS infected in human HEL cells assessed as reduction of virus-induced cytopathogenicity; type: functional, organism-based; details: Human alphaherpesvirus 1, KOS
[4] = system: Vesicular stomatitis virus; assay: Antiviral activity against Vesicular stomatitis virus infected in human HEL cells assessed as reduction of virus-induced cytopathogenicity; type: functional, organism-based
Cytomegalovirus [5] = assay: Antiviral activity against Cytomegalovirus AD-169 infected in human HEL cells assessed as reduction of plaque formation; type: functional, organism-based; details: Human betaherpesvirus 5, AD-169, HEL
[6] = Cytotoxicity against cat CRFK cells; type: cell-based, Felis catus
Punta Toro virus = assay: Antiviral activity against […] infected in african green monkey Vero cells assessed as reduction of virus-induced cytopathogenicity; type: functional, organism-based
[7] = Cytotoxicity against african green monkey Vero cells; type: cell-based; details: chlorocebus sabaeus
Coxsackievirus [8] = assay: Antiviral activity against Coxsackievirus B4 infected in african green monkey Vero cells assessed as reduction of virus-induced cytopathogenicity; type: functional, organism-based
[9] = system: Vesicular stomatitis virus; assay: Antiviral activity against Vesicular stomatitis virus infected in human HeLa cells assessed as reduction of virus-induced cytopathogenicity; type: functional, organism-based
[10] = system: Respiratory syncytial virus; assay: Antiviral activity against Respiratory syncytial virus infected in human HeLa cells assessed as reduction of virus-induced cytopathogenicity; type: functional, organism-based
Coxsackievirus [11] = assay: Antiviral activity against Coxsackievirus B4 infected in human HeLa cells assessed as reduction of virus-induced cytopathogenicity; type: functional, organism-based
[12] = system: Mammalian orthoreovirus 1; assay: Antiviral activity against Reovirus-1 infected in african green monkey Vero cells assessed as reduction of virus-induced cytopathogenicity; type: functional, organism-based; details: Mammalian orthoreovirus 1, Vero
Human respirovirus 3 = assay: Antiviral activity against Parainfluenza-3 virus infected in african green monkey Vero cells assessed as reduction of virus-induced cytopathogenicity; type: functional, organism-based; details: Human respirovirus 3, Vero
[13] = Cytotoxicity against human HeLa cells; type: cell-based
Sindbis virus = assay: Antiviral activity against Sindbis virus infected in african green monkey Vero cells assessed as reduction of virus-induced cytopathogenicity; type: functional, organism-based
Human alphaherpesvirus 3 [14] = assay: Antiviral activity against […] Varicella-zoster virus 07-1 infected in human HEL cells assessed as reduction of plaque formation; type: functional, organism-based; details: Human alphaherpesvirus 3, 07-1, HEL
Influenza A virus [15] = assay: Antiviral activity against influenza A virus […] subtype infected in dog MDCK cells assessed as reduction of virus-induced cytopathogenicity by MTS assay; type: functional, organism-based; details: read-out: EC50
Plasmodium falciparum [16] = assay: Antimalarial activity against chloroquine-sensitive Plasmodium falciparum D10 by two-fold dilution technique; type: functional, organism-based
Human alphaherpesvirus 1 [17] = assay: Antiviral activity against Herpes simplex virus-1 KOS infected in human HEL cells assessed as reduction of virus-induced cytopathogenicity; type: functional, organism-based; details: Human alphaherpesvirus 1, KOS
Influenza B virus = assay: Antiviral activity against influenza B virus infected in dog MDCK cells assessed as reduction of virus-induced cytopathogenicity by MTS assay; type: functional, organism-based
[18] = Inhibition of beta-hematin formation at 1 mg/ml; type: functional
Human alphaherpesvirus 3 [19] = assay: Antiviral activity against TK-positive Varicella-zoster virus OKA infected in human HEL cells assessed as reduction of plaque formation; type: functional, cell-based; details: Human alphaherpesvirus 3, strain Oka vaccine
Influenza A virus [20] = assay: Antiviral activity against influenza A virus H1N1 subtype infected in dog MDCK cells assessed as reduction of virus-induced cytopathogenicity by MTS assay; type: functional, organism-based
Felid alphaherpesvirus 1 = assay: Antiviral activity against feline herpesvirus infected in cat CRFK cells assessed as reduction of virus-induced cytopathogenicity by MTS assay; type: functional, organism-based; details: Felid alphaherpesvirus 1, CRFK
MDCK = assay: (§1) Cytotoxicity against MDCK cells assessed as cell viability after 4 days by MTS assay; type: cell-based, Canis lupus familiaris; details: dog, mdck, 96 h
[21] = as §1; type: cell-based, Canis lupus familiaris; details: dog, MDCK cells
Human alphaherpesvirus 2 = assay: Antiviral activity against Herpes simplex virus-2 G infected in human HEL cells assessed as reduction of virus-induced cytopathogenicity; type: functional, organism-based; details: Human alphaherpesvirus 2, strain G
Plasmodium falciparum [22] = assay: Antimalarial activity against chloroquine-resistant Plasmodium falciparum Dd2; type: functional, organism-based
DNA = assay: Binding affinity to calf thymus DNA assessed as change in melting temperature at 30 uM by UV-visible spectrophotometry; type: nucleic-acid assay; details: Bos taurus
[23] = Selectivity index, ratio of CC50 for MDCK cells to IC50 for chloroquine-resistant Plasmodium falciparum Dd2; type: functional

SMILES: Nc1nc2c(ncn2COC(CO)CO)c(=O)[nH]1 [GANCICLOVIR]
- pEC50 (Cytomegalovirus [1]): 5.22
- MCC [2]: > 100 µM
- pEC50 (Feline coronavirus): < 4.00
- pEC50 (Human alphaherpesvirus 1 [3]): 5.40
- pEC50 [4]: < 4.00
- pEC50 (Cytomegalovirus [5]): 5.10
- CC50 ([6]; CRFK cells): > 100 µM

SMILES: Nc1ncnc2c1ncn2C[C@H](O)CO [(S)-DHPA]
- pEC50 (Punta Toro virus): < 3.60
- MCC [7]: > 250 µM
- pEC50 (Coxsackievirus [8]): < 3.60
- pEC50 [9]: < 3.60
- pEC50 [10]: < 3.60
- pEC50 (Coxsackievirus [11]): < 3.60
- pEC50 [12]: < 3.60
- pEC50 (Human respirovirus 3): 3.84
- MCC [13]: > 250 µM
- pEC50 (Sindbis virus): < 3.60

SMILES: CCOC(=O)c1c(C)nc(NCCCCNc2ccnc3cc(Cl)ccc23)nc1-c1ccc(Cl)cc1
- pEC50 (Punta Toro virus): < 6.10
- MCC [7]: 4 µM
- pEC50 (Coxsackievirus [8]): < 6.10
- pEC50 [9]: < 4.00
- pEC50 (Human alphaherpesvirus 3 [14]): < 5.40
- pEC50 [10]: < 4.00
- pEC50 (Influenza A virus [15]): < 6.10
- pEC50 (Cytomegalovirus [1]): < 5.40
- pIC50 (Plasmodium falciparum [16]): 5.72
- pEC50 (Human alphaherpesvirus 1 [17]): < 4.70
- pEC50 (Influenza B virus): < 6.10
- pEC50 (Coxsackievirus [11]): < 4.00
- inhibition [18]: 56%
- pEC50 [12]: < 6.10
- MCC [2]: 20 µM
- pEC50 (Human alphaherpesvirus 3 [19]): < 5.40
- pEC50 (Influenza A virus [20]): < 6.10
- pEC50 (Human respirovirus 3): < 6.10
- pEC50 (Feline coronavirus): < 4.00
- pEC50 (Felid alphaherpesvirus 1): < 4.00
- CC50 (MDCK): 2.2 µM
- MCC at 96 h [21]: ≥ 0.8 µM
- pEC50 (Human alphaherpesvirus 1 [3]): < 4.70
- pEC50 (Human alphaherpesvirus 2): < 4.70
- pEC50 [4]: < 4.70
- pEC50 (Cytomegalovirus [5]): < 5.40
- MCC [13]: > 100 µM
- CC50 ([6]; crfk): > 100 µM
- pEC50 (Sindbis virus): < 6.10

SMILES: NC(=O)c1ncn([C@@H]2O[C@H](CO)[C@@H](O)[C@H]2O)n1 [RIBAVIRIN]
- MCC [7]: > 250 µM
- pEC50 (Coxsackievirus [8]): < 3.60
- pEC50 (Influenza A virus [15]): 5.96
- pEC50 (Influenza B virus): 5.55
- pEC50 (Coxsackievirus [11]): 3.95
- pEC50 [12]: < 3.60
- pEC50 (Influenza A virus [20]): 5.60
- pEC50 (Human respirovirus 3): 3.84
- MCC at 96 h [21]: > 100 µM
- MCC [13]: > 250 µM
- pEC50 (Sindbis virus): < 3.60

SMILES: Nc1ccn(C[C@@H](CO)OCP(=O)(O)O)c(=O)n1 [CIDOFOVIR]
- pEC50 (Cytomegalovirus [1]): 5.74
- MCC [2]: > 250 µM
- pEC50 [4]: < 3.60
- pEC50 (Cytomegalovirus [5]): 6.07

SMILES: C[C@H]1[C@H](OC(=O)CCC(=O)O)O[C@@H]2O[C@@]3(C)CC[C@H]4[C@H](C)CC[C@@H]1[C@@]24OO3 [ARTESUNATE]
- pIC50 (Plasmodium falciparum [22]): 7.51

SMILES: CCN(CC)CCCC(C)Nc1ccnc2cc(Cl)ccc12 (stereo not given)
- inhibition [18]: 98%
- ΔTm (DNA): 9 °C

SMILES: CCOC(=O)c1cnc(NCCCCNc2ccnc3cc(Cl)ccc23)nc1C
- pIC50 (Plasmodium falciparum [22]): 6.47
- pEC50 (Punta Toro virus): < 4.70
- MCC [7]: 100 µM
- pEC50 (Coxsackievirus [8]): < 4.70
- pEC50 [9]: < 4.70
- pEC50 (Human alphaherpesvirus 3 [14]): < 4.70
- pEC50 [10]: < 4.70
- pEC50 (Influenza A virus [15]): < 5.40
- pEC50 (Cytomegalovirus [1]): < 4.70
- pIC50 (Plasmodium falciparum [16]): 6.68
- pEC50 (Human alphaherpesvirus 1 [17]): < 4.00
- pEC50 (Influenza B virus): < 5.40
- pEC50 (Coxsackievirus [11]): < 4.70
- inhibition [18]: 58%
- pEC50 [12]: < 4.70
- MCC [2]: ≥ 100 µM
- pEC50 (Human alphaherpesvirus 3 [19]): < 4.70
- pEC50 (Influenza A virus [20]): < 5.40
- Ratio CC50/IC50 [23]: 30.65
- pEC50 (Human respirovirus 3): < 4.70
- pEC50 (Feline coronavirus): < 4.00
- pEC50 (Felid alphaherpesvirus 1): < 4.00
- CC50 at 96 h [21]: 10.3 µM
- MCC at 96 h [21]: ≥ 4 µM
- pEC50 (Human alphaherpesvirus 1 [3]): < 4.00
- pEC50 (Human alphaherpesvirus 2): < 4.00
- pEC50 [4]: < 4.00
- pEC50 (Cytomegalovirus [5]): < 4.70
- MCC [13]: 100 µM
- CC50 ([6]; CRFK cells): > 100 µM
- pEC50 (Sindbis virus): < 4.70
